Measured values taken from patent publication US20060014938A1, “Stable aqueous colloidal lanthanide oxides” (priority 2004, published 2006).
One block for each compound: values may come before it.

Experiments:
mice = details: cited from earlier work
[1] = Size and aqueous stability of colloid after crosslinking or surface modification; assay type: physicochemical
Procedure: The dextran covered lanthanide colloid was prepared according to Example 6 except that lanthanum chloride was substituted for samarium chloride. In a fume hood, to 40 mL of colloid was added 100 mL of 5M NaOH, 40 mL distilled water and 40 mL epichlorohydrin. The mixture was incubated at room temperature for about 24 hours with shaking to promote interaction of the organic phase (epichlorohydrin) and aqueous phase which includes the dextran covered colloid. Epichlorohydrin was removed by placing the colloid in a dialysis bag and dialyzing against 20 changes of distilled water of 20 liters each. After dialysis, the product was filtered through a 0.2 micron filter and stored at 4° C. The size and aqueous stability of the colloid suspension were unaffected by this treatment.
The reduced dextran covered colloid was prepared essentially according to Example 10 except that lutetium chloride was substituted for gadolinium chloride. In a fume hood, to 40 mL of colloid was added 100 mL of 5M NaOH, 40 mL of distilled water and 40 mL of epichlorohydrin. The mixture was incubated at room temperature for about 24 hours with shaking to promote interaction of the organic phase (epichlorohydrin) and aqueous phase which includes the dextran covered colloid. Epichlorohydrin was removed by placing the colloid in a dialysis bag and dialyzing against 5 changes of distilled water of 4 liters each. […]

[2] = system: pig mesenchymal stem cells (MSC); test: Cell viability test; assay type: cell-based
Procedure: FIG. 1 is a set of photomicrographs showing results from a cell viability test using Pig MSCs.
In all experiments colloid was incubated with cells in growth medium for 12 hours (at a concentration of 1 mg Eu/mL) which was then washed away.

[3] = From the text: Table 1 summarizes characteristics of gadolinium DTPA (a previously described MRI contrast agent) and of compositions that are gadolinium oxide complexed with reduced dextran as provided herein, comparing characteristics of these to an ideal vascular contrast agent.
[4] = MRI of tubes using a T1 pulse sequence; details: 1.0 and 0.1 nM Gd, same molar concentrations
Procedure: Colloidal gadolinium Oxide prepared according to Example 9, and Gadolinium DTPA, each at a concentration of each of 1.0 and 0.1 nM Gd, were added to a volume of 1 mL in a 2 mL screw cap plastic tube, and were subjected to MRI using a T1 pulse sequence.
Row 3 is water, a negative control.

Compound: [Cl][Gd]([Cl])[Cl] [gadolinium chloride]
most common lesions after injection (mice): mineral emboli in capillaries, accumulation of mineral in the mononuclear phagocytic system, hepatocellular necrosis, and lymphoid depletion, necrosis and mineralisation in the spleen

size and aqueous stability of the colloid suspension after the treatment [1]: unaffected
Compound: Gadolinium Oxide Colloid Modified with Biotin [Example 22]

Compound: C[CH2][Hg][S]c1ccccc1C(=O)[O-].[Na+] [thimerasol]
state of cells (FIG. 1 Panel C) ([2]; added to growth medium, after 24 hours): severe deterioration | time to cell death ([2]; positive control): less than 24 hours

Autoclavable without excipients [3]: Yes
Compound: O=C([O-])CN(CCN(CC(=O)[O-])CC(=O)[O-])CCN(CC(=O)[O-])CC(=O)[O-].[Gd+3] [Gadolinium DTPA]
Non toxic at vast excess [3]: Yes | potency as contrast agent (T1 weighted image) [4]: equally potent
